Reference: patent US20210269734A1, “POLYISOBUTYLENE-SUBSTITUTED PHENOL, DERIVATIVES THEREOF, AND LUBRICATING COMPOSITIONS CONTAINING THE POLYISOBUTYLENE-SUBSTITUTED PHENOL AND ITS DERIVATIVES” (The Lubrizol Corporation, priority 2016, published 2021)
Read-outs that look alike come from different tables or passages of the source.

How the values were obtained:
Daphnia sp. [1] = settings: published value, same test method; Daphnia magna, Sewell & McKenzie (2005a); cited from earlier work
Daphnia sp. [2] = settings: OECD Test No. 202 acute immobilisation
Protocol: The polyisobutylene substituted phenol described in Example 1 was tested for Acute Ecotox Value for Invertebrate using the OECD Guidelines for the Testing of Chemicals, Test No. 202 Daphnia sp. Acute Immobilisation Test (2004). Samples of alkyl-phenols having C4 and C8 alkyl groups were compared to the Sample of Example 1. A published test value for PDDP using the same test method is also included as a comparison.

PDDP [Comparative Ex. 3]
Acute Ecotox Value for Invertebrate daphnid (EC50) (Daphnia sp. [1]): 0.037 µg/mL

350 Mn polyisobutylene-alkylated phenol [Example 1]
Acute Ecotox Value for Invertebrate daphnid (EC50) (Daphnia sp. [2]): >100 µg/mL
